Earlier results on 4 compounds are cited in patent US20220241275A1, “TARGETED TREATMENT OF CANCERS WITH DYSREGULATED FIBROBLAST GROWTH FACTOR RECEPTOR SIGNALING” (G1 Therapeutics, Inc., priority 2019, published 2022).

Usually IC50 stands for the concentration at which inhibition is half-maximal.

Some targets named below: FGFR1 (Homo sapiens, UniProt P11362); FGFR3 (Homo sapiens, UniProt P22607); FGFR2 (Homo sapiens, UniProt P21802); FGFR4 (Homo sapiens, UniProt P22455).
The next data set concerns the target VEGFR2 (Homo sapiens, UniProt P35968). As to conditions: cell-free assays.
Data set [1] relates to FGFR1-amplified squamous NSCLC and FGFR3-mutant urothelial cancer. As to conditions: doses >=100 mg, phase I dose escalation trial.

Read-outs that look alike come from different tables or passages of the source.

FGFR4, sequence (P22455 22-802): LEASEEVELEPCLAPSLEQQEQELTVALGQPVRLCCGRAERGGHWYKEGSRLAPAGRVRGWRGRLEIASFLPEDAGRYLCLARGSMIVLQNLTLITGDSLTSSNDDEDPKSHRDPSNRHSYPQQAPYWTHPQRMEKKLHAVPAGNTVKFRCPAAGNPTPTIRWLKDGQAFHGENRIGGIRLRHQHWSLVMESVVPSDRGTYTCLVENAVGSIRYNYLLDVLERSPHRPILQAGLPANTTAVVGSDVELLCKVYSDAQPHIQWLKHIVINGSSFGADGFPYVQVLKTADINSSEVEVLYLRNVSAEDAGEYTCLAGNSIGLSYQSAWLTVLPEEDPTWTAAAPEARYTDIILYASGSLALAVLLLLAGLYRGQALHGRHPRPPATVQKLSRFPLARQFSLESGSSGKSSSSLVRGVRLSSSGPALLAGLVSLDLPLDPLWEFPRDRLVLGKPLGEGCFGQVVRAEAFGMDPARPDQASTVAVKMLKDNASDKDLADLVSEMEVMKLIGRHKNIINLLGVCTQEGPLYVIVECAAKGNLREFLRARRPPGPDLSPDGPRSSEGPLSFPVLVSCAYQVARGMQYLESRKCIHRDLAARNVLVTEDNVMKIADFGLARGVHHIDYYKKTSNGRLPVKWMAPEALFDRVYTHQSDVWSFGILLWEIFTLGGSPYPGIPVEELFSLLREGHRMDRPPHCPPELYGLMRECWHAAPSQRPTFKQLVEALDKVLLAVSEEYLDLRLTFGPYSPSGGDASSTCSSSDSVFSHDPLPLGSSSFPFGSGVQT
FGFR3, sequence (P22607 23-806): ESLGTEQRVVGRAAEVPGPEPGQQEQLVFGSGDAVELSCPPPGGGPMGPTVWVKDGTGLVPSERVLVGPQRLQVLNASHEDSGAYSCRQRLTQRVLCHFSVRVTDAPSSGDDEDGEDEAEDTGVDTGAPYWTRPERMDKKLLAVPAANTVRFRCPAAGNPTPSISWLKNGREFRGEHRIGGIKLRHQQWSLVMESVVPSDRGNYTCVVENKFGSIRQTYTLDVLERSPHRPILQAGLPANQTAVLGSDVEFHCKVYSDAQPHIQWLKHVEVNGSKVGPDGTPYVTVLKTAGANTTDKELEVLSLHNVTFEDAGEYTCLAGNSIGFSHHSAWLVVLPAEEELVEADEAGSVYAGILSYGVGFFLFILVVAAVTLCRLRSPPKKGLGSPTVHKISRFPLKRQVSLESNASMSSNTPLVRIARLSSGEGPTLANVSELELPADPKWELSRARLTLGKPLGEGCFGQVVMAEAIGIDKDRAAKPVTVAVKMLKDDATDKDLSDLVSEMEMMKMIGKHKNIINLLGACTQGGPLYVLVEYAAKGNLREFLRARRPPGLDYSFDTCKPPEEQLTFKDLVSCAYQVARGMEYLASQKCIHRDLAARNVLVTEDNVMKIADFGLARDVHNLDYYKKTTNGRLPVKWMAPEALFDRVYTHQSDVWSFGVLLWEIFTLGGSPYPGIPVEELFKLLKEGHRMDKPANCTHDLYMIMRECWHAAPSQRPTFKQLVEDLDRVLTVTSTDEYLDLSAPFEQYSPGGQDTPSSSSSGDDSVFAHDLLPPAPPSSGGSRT
VEGFR2, sequence (P35968 20-1356, species assumed): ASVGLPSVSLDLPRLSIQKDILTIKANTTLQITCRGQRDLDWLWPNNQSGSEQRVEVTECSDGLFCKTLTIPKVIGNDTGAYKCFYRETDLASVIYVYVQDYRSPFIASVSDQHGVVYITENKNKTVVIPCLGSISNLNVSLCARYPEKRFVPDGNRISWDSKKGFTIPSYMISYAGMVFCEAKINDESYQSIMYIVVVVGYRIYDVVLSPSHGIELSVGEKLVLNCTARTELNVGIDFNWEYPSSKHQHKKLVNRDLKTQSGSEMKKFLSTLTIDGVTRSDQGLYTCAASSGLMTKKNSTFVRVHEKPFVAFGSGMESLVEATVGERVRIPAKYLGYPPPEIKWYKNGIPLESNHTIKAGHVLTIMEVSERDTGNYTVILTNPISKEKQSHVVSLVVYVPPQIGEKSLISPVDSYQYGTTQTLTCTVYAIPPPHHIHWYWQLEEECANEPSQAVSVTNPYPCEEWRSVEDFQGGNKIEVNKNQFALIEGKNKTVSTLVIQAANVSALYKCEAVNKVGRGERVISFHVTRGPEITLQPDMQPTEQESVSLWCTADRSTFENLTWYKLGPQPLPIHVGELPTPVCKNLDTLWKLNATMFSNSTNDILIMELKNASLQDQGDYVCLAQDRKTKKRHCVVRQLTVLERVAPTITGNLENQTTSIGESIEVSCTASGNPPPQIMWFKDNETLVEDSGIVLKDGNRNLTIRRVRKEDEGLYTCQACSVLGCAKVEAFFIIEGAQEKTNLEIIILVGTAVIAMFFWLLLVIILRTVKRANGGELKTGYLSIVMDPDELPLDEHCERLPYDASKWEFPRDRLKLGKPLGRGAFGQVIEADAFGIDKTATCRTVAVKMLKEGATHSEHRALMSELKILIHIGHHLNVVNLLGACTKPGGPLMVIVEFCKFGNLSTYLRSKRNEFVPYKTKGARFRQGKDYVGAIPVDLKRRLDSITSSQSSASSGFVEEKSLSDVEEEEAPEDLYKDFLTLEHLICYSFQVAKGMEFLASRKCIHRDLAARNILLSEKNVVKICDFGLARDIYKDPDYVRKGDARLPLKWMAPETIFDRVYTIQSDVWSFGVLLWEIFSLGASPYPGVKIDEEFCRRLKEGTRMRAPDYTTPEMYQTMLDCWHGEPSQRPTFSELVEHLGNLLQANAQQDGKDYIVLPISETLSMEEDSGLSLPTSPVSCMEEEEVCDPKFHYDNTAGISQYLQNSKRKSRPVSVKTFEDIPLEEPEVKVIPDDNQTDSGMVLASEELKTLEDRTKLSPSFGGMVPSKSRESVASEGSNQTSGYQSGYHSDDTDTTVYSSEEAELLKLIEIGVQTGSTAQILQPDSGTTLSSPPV
FGFR1, sequence (P11362 22-822): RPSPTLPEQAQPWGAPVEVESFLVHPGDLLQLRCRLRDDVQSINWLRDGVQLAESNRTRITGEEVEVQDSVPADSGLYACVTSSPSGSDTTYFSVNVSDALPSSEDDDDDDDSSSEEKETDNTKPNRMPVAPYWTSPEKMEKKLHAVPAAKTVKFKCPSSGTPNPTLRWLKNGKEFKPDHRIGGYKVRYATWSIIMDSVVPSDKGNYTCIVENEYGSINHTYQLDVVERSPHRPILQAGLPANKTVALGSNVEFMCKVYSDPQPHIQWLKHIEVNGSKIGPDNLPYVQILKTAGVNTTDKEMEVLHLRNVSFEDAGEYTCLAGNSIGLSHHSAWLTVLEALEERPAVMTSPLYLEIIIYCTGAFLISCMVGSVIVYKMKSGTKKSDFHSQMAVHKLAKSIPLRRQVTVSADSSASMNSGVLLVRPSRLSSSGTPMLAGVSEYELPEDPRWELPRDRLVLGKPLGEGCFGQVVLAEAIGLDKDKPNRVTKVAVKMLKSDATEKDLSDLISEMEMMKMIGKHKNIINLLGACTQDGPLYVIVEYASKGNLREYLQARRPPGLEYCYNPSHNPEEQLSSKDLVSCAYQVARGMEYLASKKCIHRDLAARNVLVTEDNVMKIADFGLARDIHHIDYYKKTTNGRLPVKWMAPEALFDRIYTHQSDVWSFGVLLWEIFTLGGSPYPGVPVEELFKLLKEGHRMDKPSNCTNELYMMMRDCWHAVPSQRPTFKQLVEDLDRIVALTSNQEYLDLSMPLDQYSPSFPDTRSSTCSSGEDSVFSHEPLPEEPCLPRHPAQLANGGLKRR
FGFR2, sequence (P21802 22-821): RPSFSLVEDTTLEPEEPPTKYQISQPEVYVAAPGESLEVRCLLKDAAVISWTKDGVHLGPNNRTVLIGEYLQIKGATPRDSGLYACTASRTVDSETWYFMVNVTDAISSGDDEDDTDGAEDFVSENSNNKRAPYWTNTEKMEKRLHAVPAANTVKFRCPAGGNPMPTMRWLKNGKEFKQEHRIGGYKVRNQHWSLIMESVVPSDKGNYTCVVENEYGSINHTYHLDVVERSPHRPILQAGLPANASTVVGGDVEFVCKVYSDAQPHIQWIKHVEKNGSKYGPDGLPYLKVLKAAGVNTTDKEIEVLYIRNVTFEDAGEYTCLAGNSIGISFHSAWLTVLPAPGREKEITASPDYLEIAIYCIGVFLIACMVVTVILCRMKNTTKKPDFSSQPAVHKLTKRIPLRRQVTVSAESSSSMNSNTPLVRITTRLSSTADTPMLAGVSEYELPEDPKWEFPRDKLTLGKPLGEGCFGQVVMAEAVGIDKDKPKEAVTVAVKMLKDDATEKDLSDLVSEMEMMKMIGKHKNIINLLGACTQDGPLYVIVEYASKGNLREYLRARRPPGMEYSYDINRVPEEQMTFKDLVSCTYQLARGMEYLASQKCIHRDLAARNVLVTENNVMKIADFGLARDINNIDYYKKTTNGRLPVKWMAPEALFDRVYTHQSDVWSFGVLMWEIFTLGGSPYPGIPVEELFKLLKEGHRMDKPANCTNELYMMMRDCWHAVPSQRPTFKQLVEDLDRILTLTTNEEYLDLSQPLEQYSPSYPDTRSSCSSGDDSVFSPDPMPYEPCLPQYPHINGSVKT

With `C=CC(=O)Nc1ccc(CN2C(=O)N(c3cc(OC)cc(OC)c3)Cc3cnc(Nc4ccc(N5CCN(C)CC5)cc4)nc32)cc1` [FIIN-2], the IC50 is 3.09 nM on FGFR1, 27 nM on FGFR3, 4.3 nM at FGFR2 and 45.3 nM on FGFR4 (read-out: IC50 for FGFR4).

Consider `CCN(CC)CCCCNc1ncc2cc(-c3cc(OC)cc(OC)c3)c(NC(=O)NC(C)(C)C)nc2n1` [PD173074], for which the IC50 at VEGFR2 is 100 to 200 nM. For the compound `CNC(=O)c1cccc2cc(Oc3ccnc(NC(=O)c4ccc(N5CCN(CCO)CC5)cc4)c3)ccc12` [SOMCL-085], the IC50 at FGFR4 (read-out: IC50, FGFR4) is 320 nM. Regarding `CCN1CCN(c2ccc(Nc3cc(N(C)C(=O)Nc4c(Cl)c(OC)cc(OC)c4Cl)ncn3)cc2)CC1` [infigratinib], in data set [1], the confirmed partial responses result is on record as “six”.
